Source: US20180296564A1, “METHOD FOR PREVENTING AND/OR TREATING CHRONIC TRAUMATIC ENCEPHALOPATHY - III” (Eustralis Pharmaceuticals Limited (trading as Pressura …, priority 2013, published 2018)

Tested on: tau phosphorylation
Assay: Tau phosphorylation after concussive injury in the rat (immunohistology)
Assay type: in vivo
Conditions: rat concussion model; 3 mg/kg intravenously at 30 min after induction of injury; assessed 3 days after the concussive event
Text: Note that concussive injury in the rat causes extensive tau phosphorylation (B) by 3 days after the concussive event compared to non-injured animals (A). […] Having established that hyperphosphorylated tau accumulates perivascularly following concussive injury, we used an animal model of concussion to investigate whether concussion causes perivascular release of substance P. We developed a rodent model of concussion to replicate the concussive event (Donkin et al., 2004, 7th International Neurotrauma Symposium, pp 75-78, Medimond Publishers, Bologna, Italy) and subsequently determined whether substance P was released after such an event. There was a clear increase in brain perivascular substance P immunoreactivity after the concussive event (FIG. 2). […] Having shown that mechanical injury causes release of substance P after concussive injury, we then investigated whether Emend® reduces tau hyperphosphorlation after concussive injury. […] Note that concussive injury in the rat causes extensive tau phosphorylation (B) by 3 days after the concussive event compared to non-injured animals (A). […] Thus, administration of Emend® prevents tau hyperphosphorylation and thus prevents the development of CTE.

Structure (SMILES): C[C@@H](O[C@H]1OCCN(Cc2nc(=O)[nH][nH]2)[C@H]1c1ccc(F)cc1)c1cc(C(F)(F)F)cc(C(F)(F)F)c1 [Emend®, 5-([(2R,3S)-2-((R)-1-[3,5-bis(trifluoromethyl)phenyl]ethoxy)-3-(4-fluorophenyl)morpholino]methyl)-1H-1,2,4-triazol-3(2H)-one]
- effect on tau phosphorylation after concussive injury: almost complete inhibition of tau phosphorylation
